These results are taken from paper PMC3885398, “Evaluation of the Antitumor Effects of BPR1J-340, a Potent and Selective FLT3 Inhibitor, Alone or in Combination with an HDAC Inhibitor, Vorinostat, in AML Cancer” (PLoS ONE, 2014).

The structures appear in SMILES notation.

One experiment deals with T1, JAK2 (Homo sapiens, UniProt O60674).
T1 construct: purchased Invitrogen SelectScreen
Nature of the experiment: Invitrogen SelectScreen kinase profiling. The experiment is classed as biochemical. The note with it: 100 nM. As for the experimental part: (§1) The FLT3 and VEGFR1/2 Kinase-Glo kinase assays were performed as reported by our earlier study. The VEGFR3 activity analysis was conducted using the same protocol described in the VEGFR1/2 assay. The kinase inhibition profiling and inhibitory activity of FLT3-D835Y, CSF1R, and TRKA were determined by Invitrogen SelectScreen® kinase profiling service (Carlsbad, California, USA).
(§2) BPR1J-340, a urea-substituted 3-phenyl-1H-5-pyrazolylamine-based compound, was designed through chemical modification of sulfonamide series of derivatives (BPR1J-097 series) by a structure-activity relationship (SAR) study (Fig. 1), [32]. For kinase inhibition specificity screening, BPR1J-340 was tested against 59 protein kinases covering the major oncogenic kinases of human protein kinome. […] In addition, BPR1J-340 inhibited TRKA, which is associated with the growth and metastasis of breast cancers, with an IC50 value of 8 nM. Given the high similarity of the ATP binding pockets of FLT3 and the Aurora kinases, the inhibitory activity toward Aurora A and Aurora B were measured. […] Taken together, BPRJ-340 is a selective kinase inhibitor with in vitro activity against FLT3, VEGFR2, VEGFR3 and TRKA receptor tyrosine kinases.

A further experiment has as its target T2, RPS6KA3 (RSK2) (Homo sapiens, UniProt P51812).
T2 construct: purchased Invitrogen SelectScreen
Nature of the experiment: Invitrogen SelectScreen kinase profiling. In kind it is biochemical. To be noted: 100 nM. As for the experimental part: as §1, §2

A further experiment deals with T3, GSK3A (GSK3 alpha) (Homo sapiens, UniProt P49840).
T3 construct: purchased Invitrogen SelectScreen
T3 sequence (P49840 whole entry): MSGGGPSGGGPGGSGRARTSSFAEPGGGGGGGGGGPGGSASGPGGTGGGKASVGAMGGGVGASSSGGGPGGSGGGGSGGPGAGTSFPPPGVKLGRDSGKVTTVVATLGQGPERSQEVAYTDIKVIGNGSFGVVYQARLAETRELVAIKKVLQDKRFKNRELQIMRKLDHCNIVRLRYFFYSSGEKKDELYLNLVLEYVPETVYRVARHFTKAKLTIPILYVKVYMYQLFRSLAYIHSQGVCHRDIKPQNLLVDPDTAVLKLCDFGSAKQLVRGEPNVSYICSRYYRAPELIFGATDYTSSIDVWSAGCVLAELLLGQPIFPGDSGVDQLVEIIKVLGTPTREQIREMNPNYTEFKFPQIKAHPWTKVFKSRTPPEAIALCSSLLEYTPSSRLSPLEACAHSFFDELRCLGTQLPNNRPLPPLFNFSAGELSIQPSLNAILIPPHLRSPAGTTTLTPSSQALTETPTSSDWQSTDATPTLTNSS
Nature of the experiment: Invitrogen SelectScreen kinase profiling. The experiment is classed as biochemical. To be noted: 100 nM. As for the experimental part:
as §1, §2

Another experiment deals with T4, IRAK4 (Homo sapiens, UniProt Q9NWZ3).
T4 construct: purchased Invitrogen SelectScreen
Nature of the experiment: Invitrogen SelectScreen kinase profiling. The note with it: 100 nM. In kind it is biochemical. As for the experimental part:
as §1, §2

In the next experiment the target is T5, TYK2 (Homo sapiens, UniProt P29597).
T5 construct: purchased Invitrogen SelectScreen
Nature of the experiment: Invitrogen SelectScreen kinase profiling. The note with it: 100 nM. The experiment is classed as biochemical. As for the experimental part:
as §1, §2

A further experiment deals with T6, CDC42 BPA (MRCKA) (Homo sapiens, UniProt Q5VT25).
T6 construct: purchased Invitrogen SelectScreen
Nature of the experiment: Invitrogen SelectScreen kinase profiling. In kind it is biochemical. To be noted: 100 nM. As for the experimental part: as §1, §2

Another experiment deals with T7, PIM1 (Homo sapiens, UniProt P11309).
T7 construct: purchased Invitrogen SelectScreen
T7 sequence (P11309 whole entry): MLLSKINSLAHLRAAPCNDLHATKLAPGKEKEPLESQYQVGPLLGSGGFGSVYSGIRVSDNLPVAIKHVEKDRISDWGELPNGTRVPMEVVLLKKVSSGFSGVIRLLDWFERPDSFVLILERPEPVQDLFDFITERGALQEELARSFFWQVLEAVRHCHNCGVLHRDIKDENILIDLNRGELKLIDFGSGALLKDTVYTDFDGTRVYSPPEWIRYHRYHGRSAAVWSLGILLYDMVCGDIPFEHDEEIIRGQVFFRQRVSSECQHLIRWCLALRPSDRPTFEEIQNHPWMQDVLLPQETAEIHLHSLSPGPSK
Nature of the experiment: Invitrogen SelectScreen kinase profiling. The experiment is classed as biochemical. The note with it: 100 nM. As for the experimental part: as §1, §2

For another experiment, the target named is T8, CLK1 (Homo sapiens, UniProt P49759).
T8 construct: purchased Invitrogen SelectScreen
Kind of experiment: Invitrogen SelectScreen kinase profiling. In kind it is biochemical. To be noted: 100 nM. As for the experimental part: as §1, §2

Another experiment concerns the target T9, MAPK8 (JNK1) (Homo sapiens, UniProt P45983).
T9 construct: purchased Invitrogen SelectScreen
Nature of the experiment: Invitrogen SelectScreen kinase profiling. The experiment is classed as biochemical. The note with it: 100 nM. As for the experimental part: as §1, §2

The next experiment addresses T10, FLT1 (VEGFR1) (Homo sapiens, UniProt P17948).
T10 construct: purchased Invitrogen SelectScreen
Nature of the experiment: Invitrogen SelectScreen kinase profiling. To be noted: 100 nM. The experiment is classed as biochemical. As for the experimental part:
as §1, §2

The target of a further experiment is T11, IKBKE (IKK epsilon) (Homo sapiens, UniProt Q14164).
T11 construct: purchased Invitrogen SelectScreen
Nature of the experiment: Invitrogen SelectScreen kinase profiling. In kind it is biochemical. To be noted: 100 nM. As for the experimental part: as §1, §2

For the next experiment, the target named is T12, RET (Homo sapiens, UniProt P07949).
T12 construct: purchased Invitrogen SelectScreen
Kind of experiment: Invitrogen SelectScreen kinase profiling. In kind it is biochemical. The note with it: 100 nM. As for the experimental part: as §1, §2

The target of a further experiment is T13, GSK3B (GSK3 beta) (Homo sapiens, UniProt P49841).
T13 construct: purchased Invitrogen SelectScreen
T13 sequence (P49841 whole entry): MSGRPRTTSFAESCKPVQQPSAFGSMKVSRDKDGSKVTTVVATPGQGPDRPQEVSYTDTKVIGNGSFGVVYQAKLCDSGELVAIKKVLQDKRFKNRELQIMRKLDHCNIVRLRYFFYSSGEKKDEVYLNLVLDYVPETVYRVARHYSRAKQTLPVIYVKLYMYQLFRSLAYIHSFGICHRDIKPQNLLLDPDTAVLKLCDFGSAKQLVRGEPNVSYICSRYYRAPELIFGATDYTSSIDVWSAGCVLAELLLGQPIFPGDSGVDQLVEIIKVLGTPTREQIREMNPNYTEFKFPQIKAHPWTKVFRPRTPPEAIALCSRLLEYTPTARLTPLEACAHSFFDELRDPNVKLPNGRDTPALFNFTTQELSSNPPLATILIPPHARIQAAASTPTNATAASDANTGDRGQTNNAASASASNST
Nature of the experiment: Invitrogen SelectScreen kinase profiling. In kind it is biochemical. The note with it: 100 nM. As for the experimental part: as §1, §2

The next experiment concerns the target T14, SGKL (SGK3) (Homo sapiens, UniProt Q96BR1).
T14 construct: purchased Invitrogen SelectScreen
Kind of experiment: Invitrogen SelectScreen kinase profiling. In kind it is biochemical. The note with it: 100 nM. As for the experimental part:
as §1, §2

A further experiment has as its target T15, PLK1 (Homo sapiens, UniProt P53350).
T15 construct: purchased Invitrogen SelectScreen
Kind of experiment: Invitrogen SelectScreen kinase profiling. The experiment is classed as biochemical. To be noted: 100 nM. As for the experimental part:
as §1, §2

The target in the next experiment is T16, RPS6KA5 (MSK1) (Homo sapiens, UniProt O75582).
T16 construct: purchased Invitrogen SelectScreen
Kind of experiment: Invitrogen SelectScreen kinase profiling. The experiment is classed as biochemical. To be noted: 100 nM. As for the experimental part:
as §1, §2

The next experiment has as its target T17, MAPK14 (p38 alpha) (Homo sapiens, UniProt Q16539).
T17 construct: purchased Invitrogen SelectScreen
Nature of the experiment: Invitrogen SelectScreen kinase profiling. In kind it is biochemical. To be noted: 100 nM. As for the experimental part:
as §1, §2

The target of the next experiment is T18, BRAF (Homo sapiens, UniProt P15056).
T18 construct: purchased Invitrogen SelectScreen
T18 sequence (P15056 whole entry): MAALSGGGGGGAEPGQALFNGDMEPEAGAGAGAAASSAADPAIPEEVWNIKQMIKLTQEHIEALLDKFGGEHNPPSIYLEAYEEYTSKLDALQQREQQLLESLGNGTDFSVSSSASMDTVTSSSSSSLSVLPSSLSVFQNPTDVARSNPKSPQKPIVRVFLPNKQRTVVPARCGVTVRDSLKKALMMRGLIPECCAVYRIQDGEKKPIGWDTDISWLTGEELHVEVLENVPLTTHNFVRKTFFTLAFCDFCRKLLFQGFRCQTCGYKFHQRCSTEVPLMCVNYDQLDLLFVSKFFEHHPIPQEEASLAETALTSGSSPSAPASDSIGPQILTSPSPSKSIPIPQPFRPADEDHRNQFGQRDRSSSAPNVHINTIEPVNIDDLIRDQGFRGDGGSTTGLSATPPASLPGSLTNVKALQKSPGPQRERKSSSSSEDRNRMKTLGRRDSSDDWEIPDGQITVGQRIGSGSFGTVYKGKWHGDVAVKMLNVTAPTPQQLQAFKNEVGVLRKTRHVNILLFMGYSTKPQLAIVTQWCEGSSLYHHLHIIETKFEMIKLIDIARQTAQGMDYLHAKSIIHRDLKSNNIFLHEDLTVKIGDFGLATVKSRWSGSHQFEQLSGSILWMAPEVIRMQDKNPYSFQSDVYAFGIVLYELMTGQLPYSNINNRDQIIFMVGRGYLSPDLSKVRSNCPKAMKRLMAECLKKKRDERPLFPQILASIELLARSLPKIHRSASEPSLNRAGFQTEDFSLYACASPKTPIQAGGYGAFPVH
Kind of experiment: Invitrogen SelectScreen kinase profiling. In kind it is biochemical. To be noted: 100 nM. As for the experimental part:
as §1, §2

Another experiment has as its target FLT3-ITD (Homo sapiens, UniProt P36888). Kind of experiment: FLT3 phosphorylation in MV4;11 cells, Western blot. In kind it is cell-based. To be noted: 1 hour. As for the experimental part:
Cells were lysed in lysis buffer (50 mM Tris, pH 8.0, 150 mM NaCl, 1% Triton X-100, 0.5% sodium deoxycholate, 0.1% SDS, 1 mM sodium orthovanadate, 1 mM PMSF, and 1 mM DTT). Protein lysates were resolved by SDS-PAGE and transferred onto a polyvinylidene difluoride (PVDF) membrane (Millipore, Bedford, MA, USA). The membranes were immunoblotted with appropriate antibodies and detected using the SuperSignal reagent (Pierce, Rockford, IL, USA) followed by exposure to X-ray film.
To address whether BPR1J-340 was able to inhibit the FLT3 signaling pathway in FLT3-driven cells, MV4;11 cells were treated with different concentrations of BPR1J-340 for 1 hour, and the phosphorylation status of FLT3 and STAT5 (Signal Transducer and Activator of Transcription 5), a critical down-stream modulator that plays a major role in FLT3-ITD signal transduction for cell expansion and survival, was examined by Western blot analysis. […] To investigate the difference in sensitivity between FLT3-WT and the activating mutants FLT3-ITD and FLT3-D835Y to BPR1J-340, HEK293T cells engineered to express FLT3-WT or mutants FLT3 (FLT3-ITD, FLT3-D835Y) were analyzed. […]
Figure 2 BPR1J-340 inhibits FLT3-dependent signaling. […] The phosphorylation status of FLT3 and STAT5 were evaluated by Western blot analysis. […] The FLT3 phosphorylation status in the transfected cells was evaluated by Western blot analysis.
In general terms: A western blot detects proteins with antibodies after separation by electrophoresis.

T15 sequence (P53350 whole entry): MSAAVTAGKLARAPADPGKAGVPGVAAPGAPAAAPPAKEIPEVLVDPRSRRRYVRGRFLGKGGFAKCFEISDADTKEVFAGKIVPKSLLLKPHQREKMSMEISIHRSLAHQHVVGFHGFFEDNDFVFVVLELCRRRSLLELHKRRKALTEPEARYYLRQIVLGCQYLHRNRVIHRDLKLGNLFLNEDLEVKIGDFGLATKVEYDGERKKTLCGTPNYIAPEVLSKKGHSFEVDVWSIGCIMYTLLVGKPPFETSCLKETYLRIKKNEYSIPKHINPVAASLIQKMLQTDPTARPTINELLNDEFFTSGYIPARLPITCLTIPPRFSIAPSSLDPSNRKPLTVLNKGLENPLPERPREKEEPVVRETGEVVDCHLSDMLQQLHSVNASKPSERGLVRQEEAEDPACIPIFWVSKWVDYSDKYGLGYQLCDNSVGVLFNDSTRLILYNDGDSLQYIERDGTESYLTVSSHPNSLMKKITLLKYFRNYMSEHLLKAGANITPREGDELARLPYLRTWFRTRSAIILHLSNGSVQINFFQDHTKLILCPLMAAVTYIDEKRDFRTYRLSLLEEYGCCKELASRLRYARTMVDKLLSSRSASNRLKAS
T10 sequence (P17948 27-1338): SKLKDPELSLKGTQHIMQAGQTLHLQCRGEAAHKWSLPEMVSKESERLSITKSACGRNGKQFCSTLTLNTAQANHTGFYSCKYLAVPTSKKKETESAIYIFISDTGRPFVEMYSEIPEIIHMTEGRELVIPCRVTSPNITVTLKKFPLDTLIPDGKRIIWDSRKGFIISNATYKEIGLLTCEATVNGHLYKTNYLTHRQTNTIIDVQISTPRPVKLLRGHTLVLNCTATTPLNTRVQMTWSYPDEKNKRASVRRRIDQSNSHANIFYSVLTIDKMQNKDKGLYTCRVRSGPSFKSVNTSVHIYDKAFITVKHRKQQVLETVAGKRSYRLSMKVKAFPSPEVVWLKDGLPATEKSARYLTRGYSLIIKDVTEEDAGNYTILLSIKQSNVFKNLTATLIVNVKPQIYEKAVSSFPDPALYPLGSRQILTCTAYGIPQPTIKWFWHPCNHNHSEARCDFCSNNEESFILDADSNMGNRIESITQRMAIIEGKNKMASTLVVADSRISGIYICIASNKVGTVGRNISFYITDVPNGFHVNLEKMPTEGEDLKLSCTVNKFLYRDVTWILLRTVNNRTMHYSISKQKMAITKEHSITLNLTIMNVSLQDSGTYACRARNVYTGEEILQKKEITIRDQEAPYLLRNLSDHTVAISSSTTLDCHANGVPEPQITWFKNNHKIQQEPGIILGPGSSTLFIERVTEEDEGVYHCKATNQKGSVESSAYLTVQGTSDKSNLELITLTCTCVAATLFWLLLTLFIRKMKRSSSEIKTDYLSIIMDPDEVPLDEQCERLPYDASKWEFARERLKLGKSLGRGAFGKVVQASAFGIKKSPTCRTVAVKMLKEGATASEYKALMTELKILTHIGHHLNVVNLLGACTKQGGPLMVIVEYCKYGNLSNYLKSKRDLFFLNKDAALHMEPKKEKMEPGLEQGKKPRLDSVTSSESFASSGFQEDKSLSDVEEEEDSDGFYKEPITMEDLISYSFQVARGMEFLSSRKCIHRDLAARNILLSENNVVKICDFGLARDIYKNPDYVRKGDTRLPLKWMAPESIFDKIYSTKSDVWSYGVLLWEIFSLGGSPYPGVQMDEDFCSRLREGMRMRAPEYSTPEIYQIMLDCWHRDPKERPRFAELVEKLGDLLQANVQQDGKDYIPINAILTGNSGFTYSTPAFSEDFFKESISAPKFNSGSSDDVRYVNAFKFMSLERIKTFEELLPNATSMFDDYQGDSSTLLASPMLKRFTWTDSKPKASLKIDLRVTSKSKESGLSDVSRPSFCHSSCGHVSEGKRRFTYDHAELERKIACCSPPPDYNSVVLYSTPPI
T2 sequence (P51812 whole entry): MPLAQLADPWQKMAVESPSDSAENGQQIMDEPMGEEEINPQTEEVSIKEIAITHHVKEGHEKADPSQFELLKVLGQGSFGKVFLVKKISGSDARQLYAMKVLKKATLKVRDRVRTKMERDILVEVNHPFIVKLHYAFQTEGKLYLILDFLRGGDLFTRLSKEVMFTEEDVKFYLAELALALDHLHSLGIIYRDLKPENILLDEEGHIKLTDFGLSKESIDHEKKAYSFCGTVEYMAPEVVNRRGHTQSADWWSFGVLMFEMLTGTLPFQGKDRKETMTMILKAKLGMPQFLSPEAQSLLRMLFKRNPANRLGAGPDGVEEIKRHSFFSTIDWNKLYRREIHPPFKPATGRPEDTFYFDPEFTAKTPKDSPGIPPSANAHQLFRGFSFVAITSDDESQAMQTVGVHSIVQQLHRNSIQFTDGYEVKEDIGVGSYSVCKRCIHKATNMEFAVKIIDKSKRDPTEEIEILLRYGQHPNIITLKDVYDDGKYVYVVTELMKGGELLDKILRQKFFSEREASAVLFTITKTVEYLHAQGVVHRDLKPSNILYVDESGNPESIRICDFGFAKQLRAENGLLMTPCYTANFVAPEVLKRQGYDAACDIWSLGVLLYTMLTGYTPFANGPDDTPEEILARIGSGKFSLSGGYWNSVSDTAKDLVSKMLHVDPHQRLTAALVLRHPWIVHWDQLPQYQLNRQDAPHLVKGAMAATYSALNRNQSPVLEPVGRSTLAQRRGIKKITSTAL
T17 sequence (Q16539 whole entry): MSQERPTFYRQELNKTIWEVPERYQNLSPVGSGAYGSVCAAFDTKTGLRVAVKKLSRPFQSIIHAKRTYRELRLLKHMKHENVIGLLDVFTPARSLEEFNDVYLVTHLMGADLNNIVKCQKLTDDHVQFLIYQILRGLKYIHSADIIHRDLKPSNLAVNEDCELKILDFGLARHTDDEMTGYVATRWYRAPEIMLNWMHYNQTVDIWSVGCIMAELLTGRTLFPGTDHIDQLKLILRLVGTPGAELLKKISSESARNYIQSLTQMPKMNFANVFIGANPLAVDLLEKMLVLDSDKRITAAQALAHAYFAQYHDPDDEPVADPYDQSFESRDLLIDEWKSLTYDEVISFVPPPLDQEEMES

One may read the inhibition as the drop in the measured response relative to a control, in per cent. Usually IC50 stands for the concentration at which inhibition is half-maximal. Take `CCc1cc(NC(=O)NCc2ccc(-c3cc(NC(=O)c4ccc(CN5CCN(C)CC5)cc4)[nH]n3)cc2)no1` [BPR1J-340, N1-(3-4-[([(5-ethyl-3-isoxazolyl)amino]carbonylamino)methyl]phenyl-1H-5-pyrazolyl)-4-[(4-methylpiperazino)methyl]benzamide]: the inhibition at 0.1 µM against JAK2 is 9%; on RPS6KA3 (RSK2) it was 0%; against GSK3A (GSK3 alpha) it was -1%; at IRAK4, 4%; against TYK2 it was 23%; against CDC42 BPA (MRCKA) it was -8%. Further, the inhibition at 0.1 µM against PIM1 was -5%; against CLK1 it was 6%; at MAPK8 (JNK1) it was 14%; against FLT1 (VEGFR1), 15%; against IKBKE (IKK epsilon), 21%; at RET, 49%. Besides, the inhibition at 0.1 µM came to 36% at GSK3B (GSK3 beta); 12% on SGKL (SGK3); 4% on PLK1; 16% against RPS6KA5 (MSK1); 24% against MAPK14 (p38 alpha); 5% against BRAF. The compound also gave a 50% inhibitory concentration (IC50) against FLT3-ITD of about 1 nM.
